The assay addresses human kisspeptin receptor (Homo sapiens (Human), UniProt Q969F8). The assay can be described thus: Human KISS1R binding assay (membrane competition binding). The following applies: 90 min at room temperature; competition with 0.2 nM [125I]-metastin (45-54); Flp-In T-Rex 293 kisspeptin membranes; metal complexes nonradioactive Ga, In, Lu; read-out: hKiSSR Binding Ki (90 min). The method in brief:
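Membranes from tetracycline-induced (48 h) Flp-In T-Rex 293 cells expressing receptor, 5–10 μg, incubated 90 min at room temperature with 0.2 nM [125I]-metastin (45-54) and competitor (typically 0–10,000 nM) in Tris/Mg/Ca/EGTA/0.1% BSA, pH 7.4. Filtration, washing, counting; Ki by non-linear regression.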

Numbered stars: 1 amine (or outer) side, 2 acyl side, 3 side chain; on linkers, the order of the positions; unused ones are H or OH. Square brackets hold non-standard residues; d marks the D form. Peptide text beside a SMILES is read from it. * marks the point of attachment. DOTA = O=C(O)CN1CCN(CC(=O)O)CCN(CC(=O)*)CCN(CC(=O)O)CC1; Gly(N-(3-F-4-Me-benzyl)) = Cc1ccc(CNCC(=O)*)cc1F; Gly(Nα-4-MeO-benzyl) = COc1ccc(CNCC(=O)*)cc1; X4 = O=C(c1ccc(-c2ccccc2OCCCN[*:1])cc1)[*:2]; Api(1-amidino) = N=C(N)N1CCC(N)(C(=O)O)CC1; 2Nal = N[C@@H](Cc1ccc2ccccc2c1)C(=O)O; d2Nal = N[C@H](Cc1ccc2ccccc2c1)C(=O)O; 4Pal = N[C@@H](Cc1ccncc1)C(=O)O; d4Pal = N[C@H](Cc1ccncc1)C(=O)O; 4Amb = NCc1ccc(C(=O)O)cc1; Api = NC1(C(=O)O)CCNCC1; Ahx = NCCCCCC(=O)O; azaGly = NNC(=O)O Where only a bound is given, the exact number is not on record here.

human kisspeptin receptor, sequence (Q969F8 whole entry): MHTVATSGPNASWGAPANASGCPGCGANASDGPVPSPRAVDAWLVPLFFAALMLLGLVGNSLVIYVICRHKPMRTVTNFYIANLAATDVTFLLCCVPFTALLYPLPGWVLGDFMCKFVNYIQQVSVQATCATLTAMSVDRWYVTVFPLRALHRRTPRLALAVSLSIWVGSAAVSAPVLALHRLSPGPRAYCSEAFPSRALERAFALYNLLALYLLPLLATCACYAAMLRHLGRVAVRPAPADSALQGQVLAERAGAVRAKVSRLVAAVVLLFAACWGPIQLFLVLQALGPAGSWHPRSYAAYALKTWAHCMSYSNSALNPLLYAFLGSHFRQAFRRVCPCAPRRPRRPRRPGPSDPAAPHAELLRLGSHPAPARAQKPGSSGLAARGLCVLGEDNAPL

In the case of `CC(C)C[C@H](NC(=O)NNC(=O)[C@H](Cc1ccccc1)NC(=O)c1ccc(CNC(=O)[C@H](Cc2ccc3ccccc3c2)NC(=O)[C@@H](Cc2ccc(O)cc2)NC(=O)CN2CCN(CC(=O)O)CCN(CC(=O)O)CCN(CC(=O)O)CC2)cc1)C(=O)NC1(C(=O)N[C@@H](Cc2ccccc2)C(N)=O)CCN(C(=N)N)CC1` [Compound 288] ({DOTA}-[dY][2Nal][4Amb]F[azaGly]L[Api(1-amidino)]F-NH2), the Ki was less than 10 nM.

Regarding `CC(C)C[C@H](NC(=O)NNC(=O)[C@H](Cc1ccccc1)NC(=O)CCCCCNC(=O)[C@H](Cc1ccc2ccccc2c1)NC(=O)[C@@H](Cc1ccc(O)cc1)NC(=O)CN1CCN(CC(=O)O)CCN(CC(=O)O)CCN(CC(=O)O)CC1)C(=O)NC1(C(=O)N[C@@H](Cc2ccccc2)C(N)=O)CCN(C(=N)N)CC1` [Compound 289] ({DOTA}-[dY][2Nal][Ahx]F[azaGly]L[Api(1-amidino)]F-NH2), the Ki was less than 10 nM.

With `Cc1ccc(CNCC(=O)N2CCC(NC(=O)[C@H](CC(C)C)NC(=O)NNC(=O)[C@H](Cc3ccccc3)NC(=O)[C@@H](NC(=O)[C@H](CC(N)=O)NC(=O)[C@@H](Cc3c[nH]c4ccccc34)NC(=O)CCCCCNC(=O)CN3CCN(CC(=O)O)CCN(CC(=O)O)CCN(CC(=O)O)CC3)[C@@H](C)O)(C(=O)N[C@@H](Cc3ccncc3)C(N)=O)CC2)cc1F` [Compound 290] ({DOTA-Ahx}-[dW]NTF[azaGly]L[Api](Gly(N-(3-F-4-Me-benzyl)))[4Pal]-NH2), the inhibition constant (Ki) was less than 10 nM.

For `Cc1ccc(CNCC(=O)N2CCC(NC(=O)[C@H](CC(C)C)NC(=O)NNC(=O)[C@H](Cc3ccccc3)NC(=O)[C@@H](NC(=O)[C@H](CC(N)=O)NC(=O)[C@@H](Cc3ccc(O)cc3)NC(=O)CCCCCNC(=O)CN3CCN(CC(=O)O)CCN(CC(=O)O)CCN(CC(=O)O)CC3)[C@@H](C)O)(C(=O)N[C@@H](Cc3ccncc3)C(N)=O)CC2)cc1F` [Compound 291] ({DOTA-Ahx}-[dY]NTF[azaGly]L[Api](Gly(N-(3-F-4-Me-benzyl)))[4Pal]-NH2), the Ki is less than 10 nM.

With `Cc1ccc(CNCC(=O)N2CCC(NC(=O)[C@H](CC(C)C)NC(=O)NNC(=O)[C@H](Cc3ccccc3)NC(=O)[C@@H](NC(=O)[C@H](CC(N)=O)NC(=O)[C@@H](Cc3ccc4ccccc4c3)NC(=O)CCCCCNC(=O)CN3CCN(CC(=O)O)CCN(CC(=O)O)CCN(CC(=O)O)CC3)[C@@H](C)O)(C(=O)N[C@@H](Cc3ccncc3)C(N)=O)CC2)cc1F` [Compound 292] ({DOTA-Ahx}-[d2Nal]NTF[azaGly]L[Api](Gly(N-(3-F-4-Me-benzyl)))[4Pal]-NH2), the Ki is less than 10 nM.

Consider `COc1ccc(CNCC(=O)N2CCC(NC(=O)[C@H](CC(C)C)NC(=O)NNC(=O)[C@H](Cc3ccccc3)NC(=O)[C@@H](NC(=O)[C@H](CC(N)=O)NC(=O)[C@@H](Cc3c[nH]c4ccccc34)NC(=O)[C@@H](Cc3ccc(O)cc3)NC(=O)CCCCCNC(=O)CN3CCN(CC(=O)O)CCN(CC(=O)O)CCN(CC(=O)O)CC3)[C@@H](C)O)(C(=O)N[C@@H](Cc3ccncc3)C(N)=O)CC2)cc1` [Compound 293] ({DOTA-Ahx}-[dY][dW]NTF[azaGly]L[Api](Gly(Nα-4-MeO-benzyl))[4Pal]-NH2), for which the Ki was less than 10 nM.

For `Cc1ccc(CNCC(=O)N2CCC(NC(=O)[C@H](CC(C)C)NC(=O)NNC(=O)[C@H](Cc3ccccc3)NC(=O)[C@@H](NC(=O)[C@H](CC(N)=O)NC(=O)[C@@H](Cc3ccncc3)NC(=O)[C@@H](Cc3ccc(O)cc3)NC(=O)CCCCCNC(=O)CN3CCN(CC(=O)O)CCN(CC(=O)O)CCN(CC(=O)O)CC3)[C@@H](C)O)(C(=O)N[C@@H](Cc3ccncc3)C(N)=O)CC2)cc1F` [Compound 294] ({DOTA-Ahx}-[dY][d4Pal]NTF[azaGly]L[Api](Gly(N-(3-F-4-Me-benzyl)))[4Pal]-NH2), the Ki is less than 10 nM.

With `Cc1ccc(CNCC(=O)N2CCC(NC(=O)[C@H](CC(C)C)NC(=O)NNC(=O)[C@H](Cc3ccccc3)NC(=O)[C@@H](NC(=O)[C@H](CC(N)=O)NC(=O)[C@@H](Cc3ccncc3)NC(=O)CCCCCNC(=O)CN3CCN(CC(=O)O)CCN(CC(=O)O)CCN(CC(=O)O)CC3)[C@@H](C)O)(C(=O)N[C@@H](Cc3ccncc3)C(N)=O)CC2)cc1F` [Compound 295] ({DOTA-Ahx}-[d4Pal]NTF[azaGly]L[Api](Gly(N-(3-F-4-Me-benzyl)))[4Pal]-NH2), the Ki was less than 10 nM.

Take `Cc1ccc(CNCC(=O)N2CCC(NC(=O)[C@H](CC(C)C)NC(=O)NNC(=O)[C@H](Cc3ccccc3)NC(=O)[C@@H](NC(=O)[C@H](CC(N)=O)NC(=O)[C@@H](Cc3ccncc3)NC(=O)CCCCCNC(=O)CN3CCN(CC(=O)O)CCN(CC(=O)O)CCN(CC(=O)O)CC3)[C@@H](C)O)(C(=O)N[C@@H](Cc3c[nH]c4ccccc34)C(N)=O)CC2)cc1F` [Compound 296] ({DOTA-Ahx}-[d4Pal]NTF[azaGly]L[Api](Gly(N-(3-F-4-Me-benzyl)))W-NH2): the Ki was less than 10 nM.

With `Cc1ccc(CNCC(=O)N2CCC(NC(=O)[C@H](CC(C)C)NC(=O)NNC(=O)c3ccc(-c4ccccc4OCCCNC(=O)CCCCCNC(=O)CN4CCN(CC(=O)O)CCN(CC(=O)O)CCN(CC(=O)O)CC4)cc3)(C(=O)N[C@@H](Cc3c[nH]c4ccccc34)C(N)=O)CC2)cc1F` [Compound 297] ({DOTA-Ahx}-[X4][azaGly]L[Api](Gly(N-(3-F-4-Me-benzyl)))W-NH2), the Ki is less than 10 nM.

As to `Cc1ccc(CNCC(=O)N2CCC(NC(=O)[C@H](CC(C)C)NC(=O)NNC(=O)c3ccc(-c4ccccc4OCCCNC(=O)CN4CCN(CC(=O)O)CCN(CC(=O)O)CCN(CC(=O)O)CC4)cc3)(C(=O)N[C@@H](Cc3c[nH]c4ccccc34)C(N)=O)CC2)cc1F` [Compound 298] ({DOTA}-[X4][azaGly]L[Api](Gly(N-(3-F-4-Me-benzyl)))W-NH2), the Ki is less than 10 nM.

On to `COc1ccc(CNCC(=O)N2CCC(NC(=O)[C@H](CC(C)C)NC(=O)NNC(=O)[C@H](Cc3ccccc3)NC(=O)[C@@H](NC(=O)[C@H](CC(N)=O)NC(=O)[C@@H](Cc3ccncc3)NC(=O)[C@@H](Cc3ccc(O)cc3)NC(=O)CCCCCNC(=O)CN3CCN(CC(=O)O)CCN(CC(=O)O)CCN(CC(=O)O)CC3)[C@@H](C)O)(C(=O)N[C@@H](Cc3ccncc3)C(N)=O)CC2)cc1` [Compound 299] ({DOTA-Ahx}-[dY][d4Pal]NTF[azaGly]L[Api](Gly(Nα-4-MeO-benzyl))[4Pal]-NH2), for which the inhibition constant Ki was less than 10 nM.

For the compound `CC(C)C[C@H](NC(=O)NNC(=O)[C@H](Cc1ccccc1)NC(=O)[C@@H](NC(=O)[C@H](CC(N)=O)NC(=O)[C@@H](Cc1ccc2ccccc2c1)NC(=O)[C@@H](Cc1ccc(O)cc1)NC(=O)CCCCCNC(=O)CN1CCN(CC(=O)O)CCN(CC(=O)O)CCN(CC(=O)O)CC1)[C@@H](C)O)C(=O)NC1(C(=O)N[C@@H](Cc2ccccc2)C(N)=O)CCN(C(=N)N)CC1` [Compound 300] ({DOTA-Ahx}-[dY][d2Nal]NTF[azaGly]L[Api(1-amidino)]F-NH2), the inhibitory constant (Ki) was less than 10 nM.

Turning to `CC(C)C[C@H](NC(=O)NNC(=O)[C@H](Cc1ccccc1)NC(=O)[C@@H](NC(=O)[C@H](CC(N)=O)NC(=O)[C@@H](Cc1ccc2ccccc2c1)NC(=O)CCCCCNC(=O)CN1CCN(CC(=O)O)CCN(CC(=O)O)CCN(CC(=O)O)CC1)[C@@H](C)O)C(=O)NC1(C(=O)N[C@@H](Cc2ccccc2)C(N)=O)CCN(C(=N)N)CC1` [Compound 301] ({DOTA-Ahx}-[d2Nal]NTF[azaGly]L[Api(1-amidino)]F-NH2), the inhibition constant (Ki) was less than 10 nM.

The values are drawn from patent US20250312499A1, “KISSPEPTIN RECEPTOR (KISS1R) TARGETED THERAPEUTICS AND USES THEREOF” (priority 2024, published 2025).
